Reference: patent publication US8338565B2, “Macrocyclic compounds for inhibition of tumor necrosis factor alpha” (Ensemble Therapeutics Corporation, priority 2008, dated 2012)
Numbered stars: 1 amine (or outer) side, 2 acyl side, 3 side chain; on linkers, the order of the positions; unused ones are H or OH. Bridge positions count the residues as written; N and C are the ends. Square brackets hold non-standard residues; d marks the D form. Peptide text beside a SMILES is read from it. Phe(4-NO2) = N[C@@H](Cc1ccc([N+](=O)[O-])cc1)C(=O)O; Phe(3-Ph) = N[C@@H](Cc1cccc(-c2ccccc2)c1)C(=O)O; Phe(4-CF3) = N[C@@H](Cc1ccc(C(F)(F)F)cc1)C(=O)O; dPhe(3-CN) = N#Cc1cccc(C[C@@H](N)C(=O)O)c1; dPhe(4-CN) = N#Cc1ccc(C[C@@H](N)C(=O)O)cc1; Bip = N[C@@H](Cc1ccc(-c2ccccc2)cc1)C(=O)O; Phe(4-Cl) = N[C@@H](Cc1ccc(Cl)cc1)C(=O)O; dPhe(2-CN) = N#Cc1ccccc1C[C@@H](N)C(=O)O; dPhe(3-Cl) = N[C@H](Cc1cccc(Cl)c1)C(=O)O; Phe(4-NH2) = Nc1ccc(C[C@H](N)C(=O)O)cc1; dAla(2-furyl) = N[C@H](Cc1ccco1)C(=O)O; dPhe(2-Cl) = N[C@H](Cc1ccccc1Cl)C(=O)O; 1Nal = N[C@@H](Cc1cccc2ccccc12)C(=O)O; 2Nal = N[C@@H](Cc1ccc2ccccc2c1)C(=O)O; d(hPhe) = N[C@H](CCc1ccccc1)C(=O)O; d3Pal = N[C@H](Cc1cccnc1)C(=O)O; d4Pal = N[C@H](Cc1ccncc1)C(=O)O; d2Thi = N[C@H](Cc1cccs1)C(=O)O; d3Thi = N[C@H](Cc1ccsc1)C(=O)O; dCha = N[C@H](CC1CCCCC1)C(=O)O; dPhg = N[C@@H](C(=O)O)c1ccccc1; Suc = O=C(CCC(=O)[*:2])[*:1]

Molecular target: T1, TNFα / TNFα receptor (TNFα R1/Fc) (Homo sapiens, UniProt P01375)
T1 construct: purchased R&D Systems
Assay: Inhibition of binding of TNFα to the TNFα receptor (plate ELISA competition)
Settings: Table 2; read-out: Activity (IC50, inhibition of TNFα binding to TNFα R1/Fc)
Procedure, shortened: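 Compound dilutions were preincubated 30 min at RT with 8.33 nM TNFα R1/Fc in PBST with 2% DMSO, then added to wells coated with 15 nM TNFα for 30 min. Bound receptor was detected with HRP anti-human Fc and TMB, read as A450.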

T1 sequence (P01375 77-233 limits assumed, species assumed): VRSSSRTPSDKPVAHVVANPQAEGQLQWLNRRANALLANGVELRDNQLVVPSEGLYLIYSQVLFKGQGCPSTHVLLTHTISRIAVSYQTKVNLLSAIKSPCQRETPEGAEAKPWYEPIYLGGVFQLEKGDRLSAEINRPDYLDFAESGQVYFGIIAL

SMILES | IC50
COc1ccc(C[C@@H]2NC(=O)[C@@H](Cc3cccs3)NC(=O)CCC(=O)Nc3ccc(cc3)C[C@@H](C(=O)O)NC(=O)[C@@H](Cc3ccccc3)NC2=O)cc1 [Compound 104] ([d2Thi]Y(Me)[dF][Phe(4-NH2)]-OH; linker N-4 via Suc) | > 100 µM
O=C1CCC(=O)N[C@H](Cc2cccs2)C(=O)N[C@@H](Cc2ccc([N+](=O)[O-])cc2)C(=O)N[C@H](Cc2ccccc2)C(=O)N[C@H](C(=O)O)Cc2ccc(cc2)N1 [Compound 106] ([d2Thi][Phe(4-NO2)][dF][Phe(4-NH2)]-OH; linker N-4 via Suc) | > 100 µM
O=C1CCC(=O)N[C@H](Cc2cccs2)C(=O)N[C@H](c2ccc(Br)cc2)CC(=O)N[C@H](Cc2ccccc2)C(=O)N[C@H](C(=O)O)Cc2ccc(cc2)N1 [Compound 107] | > 100 µM
O=C1CCC(=O)N[C@H](CCc2ccccc2)C(=O)N[C@@H](Cc2ccc(-c3ncccn3)cc2)C(=O)N[C@H](Cc2ccccc2)C(=O)N[C@H](C(=O)O)Cc2ccc(cc2)N1 [Compound 114] | > 100 µM
O=C1CCC(=O)N[C@H](CCc2ccccc2)C(=O)N[C@@H](Cc2ccc(-n3cccn3)cc2)C(=O)N[C@H](Cc2ccccc2)C(=O)N[C@H](C(=O)O)Cc2ccc(cc2)N1 [Compound 115] | > 100 µM
O=C1CCC(=O)N[C@H](c2ccccc2)C(=O)N[C@@H](Cc2ccc(-c3ccccc3)cc2)C(=O)N[C@H](Cc2ccccc2)C(=O)N[C@H](C(=O)O)Cc2ccc(cc2)N1 [Compound 120] ([dPhg][Bip][dF][Phe(4-NH2)]-OH; linker N-4 via Suc) | > 100 µM
O=C1CCC(=O)N[C@H](Cc2ccc(O)cc2)C(=O)N[C@@H](Cc2ccc(-c3ccccc3)cc2)C(=O)N[C@H](Cc2ccccc2)C(=O)N[C@H](C(=O)O)Cc2ccc(cc2)N1 [Compound 121] ([dY][Bip][dF][Phe(4-NH2)]-OH; linker N-4 via Suc) | > 100 µM
O=C1CCC(=O)N[C@H](CC2CCCCC2)C(=O)N[C@@H](Cc2ccc(-c3ccccc3)cc2)C(=O)N[C@H](Cc2ccccc2)C(=O)N[C@H](C(=O)O)Cc2ccc(cc2)N1 [Compound 124] ([dCha][Bip][dF][Phe(4-NH2)]-OH; linker N-4 via Suc) | > 100 µM
O=C1CCC(=O)N[C@H](Cc2c[nH]c3ccccc23)C(=O)N[C@@H](Cc2ccc(-c3ccccc3)cc2)C(=O)N[C@H](Cc2ccccc2)C(=O)N[C@H](C(=O)O)Cc2ccc(cc2)N1 [Compound 125] ([dW][Bip][dF][Phe(4-NH2)]-OH; linker N-4 via Suc) | > 100 µM
O=C1CCC(=O)N[C@H](Cc2cccnc2)C(=O)N[C@@H](Cc2ccc(-c3ccccc3)cc2)C(=O)N[C@H](Cc2ccccc2)C(=O)N[C@H](C(=O)O)Cc2ccc(cc2)N1 [Compound 126] ([d3Pal][Bip][dF][Phe(4-NH2)]-OH; linker N-4 via Suc) | > 100 µM
O=C1CCC(=O)N[C@H](Cc2ccncc2)C(=O)N[C@@H](Cc2ccc(-c3ccccc3)cc2)C(=O)N[C@H](Cc2ccccc2)C(=O)N[C@H](C(=O)O)Cc2ccc(cc2)N1 [Compound 127] ([d4Pal][Bip][dF][Phe(4-NH2)]-OH; linker N-4 via Suc) | > 100 µM
N#Cc1ccccc1C[C@H]1NC(=O)CCC(=O)Nc2ccc(cc2)C[C@@H](C(=O)O)NC(=O)[C@@H](Cc2ccccc2)NC(=O)[C@H](Cc2ccc(C(F)(F)F)cc2)NC1=O [Compound 129] ([dPhe(2-CN)][Phe(4-CF3)][dF][Phe(4-NH2)]-OH; linker N-4 via Suc) | 30 to 100 µM
N#Cc1ccc(C[C@H]2NC(=O)CCC(=O)Nc3ccc(cc3)C[C@@H](C(=O)O)NC(=O)[C@@H](Cc3ccccc3)NC(=O)[C@H](Cc3ccc(C(F)(F)F)cc3)NC2=O)cc1 [Compound 131] ([dPhe(4-CN)][Phe(4-CF3)][dF][Phe(4-NH2)]-OH; linker N-4 via Suc) | 30 to 100 µM
O=C1CCC(=O)N[C@H](Cc2ccccc2Cl)C(=O)N[C@@H](Cc2ccc(C(F)(F)F)cc2)C(=O)N[C@H](Cc2ccccc2)C(=O)N[C@H](C(=O)O)Cc2ccc(cc2)N1 [Compound 132] ([dPhe(2-Cl)][Phe(4-CF3)][dF][Phe(4-NH2)]-OH; linker N-4 via Suc) | 30 to 100 µM
O=C1CCC(=O)N[C@H](Cc2cccc(Cl)c2)C(=O)N[C@@H](Cc2ccc(C(F)(F)F)cc2)C(=O)N[C@H](Cc2ccccc2)C(=O)N[C@H](C(=O)O)Cc2ccc(cc2)N1 [Compound 133] ([dPhe(3-Cl)][Phe(4-CF3)][dF][Phe(4-NH2)]-OH; linker N-4 via Suc) | 30 to 100 µM

Further lines, results first:

IC50 | SMILES
30 to 100 µM | O=C1CCC(=O)N[C@H](Cc2cccs2)C(=O)N[C@@H](Cc2ccc(Cl)cc2)C(=O)N[C@H](Cc2ccccc2)C(=O)N[C@H](C(=O)O)Cc2ccc(cc2)N1 [Compound 105] ([d2Thi][Phe(4-Cl)][dF][Phe(4-NH2)]-OH; linker N-4 via Suc)
10 to 30 µM | O=C1CCC(=O)N[C@H](CCc2ccccc2)C(=O)N[C@@H](Cc2cccc3ccccc23)C(=O)N[C@H](Cc2ccccc2)C(=O)N[C@H](C(=O)O)Cc2ccc(cc2)N1 [Compound 108] ([d(hPhe)][1Nal][dF][Phe(4-NH2)]-OH; linker N-4 via Suc)
10 to 30 µM | O=C1CCC(=O)N[C@H](CCc2ccccc2)C(=O)N[C@@H](Cc2ccc3ccccc3c2)C(=O)N[C@H](Cc2ccccc2)C(=O)N[C@H](C(=O)O)Cc2ccc(cc2)N1 [Compound 109] ([d(hPhe)][2Nal][dF][Phe(4-NH2)]-OH; linker N-4 via Suc)
10 to 30 µM | COc1cccc(-c2ccc(C[C@@H]3NC(=O)[C@@H](CCc4ccccc4)NC(=O)CCC(=O)Nc4ccc(cc4)C[C@@H](C(=O)O)NC(=O)[C@@H](Cc4ccccc4)NC3=O)cc2)c1 [Compound 110]
10 to 30 µM | O=C1CCC(=O)N[C@H](CCc2ccccc2)C(=O)N[C@@H](Cc2cccc(-c3ccccc3)c2)C(=O)N[C@H](Cc2ccccc2)C(=O)N[C@H](C(=O)O)Cc2ccc(cc2)N1 [Compound 113] ([d(hPhe)][Phe(3-Ph)][dF][Phe(4-NH2)]-OH; linker N-4 via Suc)
30 to 100 µM | O=C1CCC(=O)NN(Cc2ccccc2)C(=O)N[C@@H](Cc2ccc(-c3ccccc3)cc2)C(=O)N[C@H](Cc2ccccc2)C(=O)N[C@H](C(=O)O)Cc2ccc(cc2)N1 [Compound 119]
30 to 100 µM | O=C1CCC(=O)N[C@H](Cc2ccsc2)C(=O)N[C@@H](Cc2ccc(-c3ccccc3)cc2)C(=O)N[C@H](Cc2ccccc2)C(=O)N[C@H](C(=O)O)Cc2ccc(cc2)N1 [Compound 122] ([d3Thi][Bip][dF][Phe(4-NH2)]-OH; linker N-4 via Suc)
30 to 100 µM | O=C1CCC(=O)N[C@H](Cc2ccco2)C(=O)N[C@@H](Cc2ccc(-c3ccccc3)cc2)C(=O)N[C@H](Cc2ccccc2)C(=O)N[C@H](C(=O)O)Cc2ccc(cc2)N1 [Compound 123] ([dAla(2-furyl)][Bip][dF][Phe(4-NH2)]-OH; linker N-4 via Suc)
30 to 100 µM | O=C1CCC(=O)N[C@H](Cc2ccccc2)C(=O)N[C@@H](Cc2ccc(-c3ccccc3)cc2)C(=O)N[C@H](Cc2ccccc2)C(=O)N[C@H](C(=O)O)Cc2ccc(cc2)N1 [Compound 128] ([dF][Bip][dF][Phe(4-NH2)]-OH; linker N-4 via Suc)
10 to 30 µM | N#Cc1cccc(C[C@H]2NC(=O)CCC(=O)Nc3ccc(cc3)C[C@@H](C(=O)O)NC(=O)[C@@H](Cc3ccccc3)NC(=O)[C@H](Cc3ccc(C(F)(F)F)cc3)NC2=O)c1 [Compound 130] ([dPhe(3-CN)][Phe(4-CF3)][dF][Phe(4-NH2)]-OH; linker N-4 via Suc)
